Data reported in BindingDB's records for PubMed 36332550 (Peking Union Medical College, 2022).

Legend:
[1] = target: T1, Zinc finger protein GLI1 (Homo sapiens, UniProt P08151); assay: Inhibition of GLI1 (unknown origin) transcriptional activity
T1 sequence (P08151 whole entry): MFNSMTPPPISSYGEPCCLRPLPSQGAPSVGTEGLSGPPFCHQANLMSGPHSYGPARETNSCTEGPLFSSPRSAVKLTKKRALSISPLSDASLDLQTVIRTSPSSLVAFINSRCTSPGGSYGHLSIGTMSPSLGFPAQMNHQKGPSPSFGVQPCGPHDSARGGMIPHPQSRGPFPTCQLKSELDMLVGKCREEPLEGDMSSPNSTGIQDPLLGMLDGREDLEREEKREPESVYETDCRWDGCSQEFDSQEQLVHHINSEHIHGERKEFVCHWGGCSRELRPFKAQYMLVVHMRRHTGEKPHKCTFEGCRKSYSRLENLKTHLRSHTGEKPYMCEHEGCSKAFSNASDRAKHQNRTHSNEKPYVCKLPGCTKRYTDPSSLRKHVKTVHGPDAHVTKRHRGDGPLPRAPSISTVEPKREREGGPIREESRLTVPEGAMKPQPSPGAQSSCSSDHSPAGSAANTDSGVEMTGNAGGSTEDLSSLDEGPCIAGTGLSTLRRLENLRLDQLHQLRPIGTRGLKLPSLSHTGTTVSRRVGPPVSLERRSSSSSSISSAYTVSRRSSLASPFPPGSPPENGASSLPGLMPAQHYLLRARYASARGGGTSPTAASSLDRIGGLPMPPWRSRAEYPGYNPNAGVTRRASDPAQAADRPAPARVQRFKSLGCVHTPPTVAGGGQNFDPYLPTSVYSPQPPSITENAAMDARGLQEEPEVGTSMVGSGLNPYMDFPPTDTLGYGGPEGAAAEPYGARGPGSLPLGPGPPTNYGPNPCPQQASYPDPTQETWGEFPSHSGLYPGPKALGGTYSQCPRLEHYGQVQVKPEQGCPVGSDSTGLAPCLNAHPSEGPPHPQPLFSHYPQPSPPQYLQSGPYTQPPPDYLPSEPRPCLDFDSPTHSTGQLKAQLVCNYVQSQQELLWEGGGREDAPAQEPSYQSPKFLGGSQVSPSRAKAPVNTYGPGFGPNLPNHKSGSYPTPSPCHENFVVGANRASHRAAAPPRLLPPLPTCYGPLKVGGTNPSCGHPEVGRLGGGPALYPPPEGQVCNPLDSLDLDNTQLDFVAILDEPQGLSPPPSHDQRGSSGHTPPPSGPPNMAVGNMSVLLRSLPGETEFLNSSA

[2] = target: T1, Zinc finger protein GLI1; assay: Inhibition of GLI1-mediated transcriptional activity in human HaCaT cells coexpressing luciferase

Compound | IC50 [1] | IC50 [2]
C[C@@]12C[C@H]3OC(=O)[C@@H]1CO[C@]14O[C@@]5([C@H]2C1=O)[C@@]3(C)OC(=O)[C@@]5(O)CC[C@H]1[C@H]4C[C@H]2O[C@]23CC=CC(=O)[C@]13C | 0.7 µM | –
C[C@]12C(=O)CC=CC1=CC[C@@H]1[C@@H]2CC[C@]2(O)C(=O)O[C@@]3(C)[C@H]4C[C@]5(C)[C@@H](CO[C@@]16O[C@@]32[C@H]5C6=O)C(=O)O4 | 4.2 µM | –
O[C@H]1[C@H]2c3cc4c(cc3CN3CCC(=C[C@@H]1O)[C@H]23)OCO4 [9,10-(methylenedioxy)-3,12-didehydrogalanthan-1alpha,2beta-diol] | – | 19 µM
CO[C@H]1C=C[C@@]23c4cc5c(cc4CN(C[C@@H]2O)[C@H]3C1)OCO5 [CHEBI:3914] | – | 4.7 µM
C[C@]12C(=O)C=CCC1=CC[C@@H]1[C@@H]2CC[C@]2(O)C(=O)O[C@@]3(C)[C@H]4C[C@]5(C)[C@@H](CO[C@@]16O[C@@]32[C@H]5C6=O)C(=O)O4 [NSC-287088] | 0.6 µM | –
